The nature of data set [1]: Stability of bicyclic peptide in DMSO-d6/PBS/D2O, monitored by 1H NMR. The format is physicochemical. The conditions noted are these: 0.96 mM in DMSO-d6/PBS (pH 5.9)/D2O (1/8/1), 1 week. As to the method: FIG. 38. Stability studies of 5h (0.96 mM) in DMSO-d6/PBS (pH 5.9)/D2O (1/8/1) monitored by ^1H NMR.
Data set [2] in a line: Stability of bicyclic peptide in PBS at varied pH, monitored by LC-MS. The class given is physicochemical. The conditions noted are these: 200 μM in PBS, pH 5.1, pH 7.4 and pH 9.2, over 16 days. The protocol: FIGS. 37a-37c. FIG. 37a. LC-MS (280 nm) trace of the bicyclic peptide 5h in PBS pH 5.1 over 16 days. FIG. 37b. LC-MS (280 nm) trace of the bicyclic peptide 5h in PBS pH 7.4 over 16 days. FIG. 37c. LC-MS (280 nm) trace of the bicyclic peptide 5h in PBS pH 9.21 over 16 days.
The bicyclic peptide 5h was prepared according to above mentioned procedure and purified by RP-HPLC. The solution of bicyclic peptide 5h (200 μM) in PBS was incubated at pH 5.1, pH 7.4, and pH 9.2, respectively. The sample was analyzed by LC-MS at different time points over 16 days (Method C).

Data set [3] can be described thus: Hydrolysis of OSu ester in aqueous acetone/PBS, monitored by 1H NMR. The class given is physicochemical. The text has this:
FIG. 15. Hydrolysis of OSu ester (S18) in 80% acetone/PBS (pH 7.4) monitored by ^1H NMR.
FIG. 16. Hydrolysis of OSu ester (S18) in 50% acetone/PBS (pH 7.4) monitored by ^1H NMR.

The target of data set [4] is SARS-CoV-2 Spike RBD (SARS-CoV-2), P0DTC2. In words: ELISA: plate coated with 100 nM SARS-CoV-2 Spike RBD, biotinylated bicyclic peptide titrated, streptavidin-HRP/TMB, A450; curve fitting.

Broadly, the Kd is a measure of binding affinity in units of concentration. High values mean weaker binding, low ones tighter binding.

Entries after “also recorded” stand apart in the source; their conditions may differ. Numbered stars: 1 amine (or outer) side, 2 acyl side, 3 side chain; on linkers, the order of the positions; unused ones are H or OH. Bridge positions count the residues as written; N and C are the ends. Square brackets hold non-standard residues; d marks the D form. Peptide text beside a SMILES is read from it. X1 = O=C(c1cc(/C(=N/O)[*:2])cc(/C(=N/O)[*:3])c1)[*:1]; d(aIle) = CC[C@H](C)[C@@H](N)C(=O)O

Turning to `CC[C@H](C)[C@H]1NC(=O)[C@H](CC(C)C)NC(=O)[C@H](C)NC(=O)c2cc3cc(c2)/C(=N/O)SC[C@H](NC(=O)CNC1=O)C(=O)N1CCC[C@H]1C(=O)N[C@@H](Cc1ccccc1)C(=O)N1CCC[C@H]1C(=O)N[C@@H](C)C(=O)N[C@@H](CCCNC(=N)N)C(=O)N[C@@H](Cc1c[nH]c2ccccc12)C(=O)N[C@H](C(N)=O)CS/C3=N\O` [5h] (AL[d(aIle)]GCPFPARWC-NH2; linker N-5-12 via X1), the “Chemical stability (1H NMR profile)” value in data set [1] is reported as “no change of NMR profile”. For the same molecule, the “Chemical stability in PBS (LC-MS profile)” value in data set [2] is on record as “remained intact; also recorded: no change of the LC-MS profile”.
On to `O=C(ON1C(=O)CCC1=O)c1ccc(/C=N/O)cc1` [S18], for which the “Percentage of S20 (%)” value in data set [3] (acetone-d6/PBS/D2O (5/4/1), 20 min) is 12%; in data set [3] (acetone-d6/PBS/D2O (5/4/1), 1 h), 26%; in data set [3] (acetone-d6/PBS/D2O (5/4/1), 2 h), 33%; in data set [3] (acetone-d6/PBS/D2O (8/1/1), 20 min), “trace”; in data set [3] (acetone-d6/PBS/D2O (8/1/1), 1 h), “trace”; in data set [3] (acetone-d6/PBS/D2O (8/1/1), 20 h) it was 4%.
Molecule AISECNHIAEWMC (modifications not checked) [bicyclized NP10 (…)] came in with a Kd in data set [4] of 400 nM.
The same measure, in the same setting: the result for AIDSCRYNHGWQC (modifications not checked) [bicyclized NP8 (…)] reads 3000 nM.
